# Measurements as given in article PMC3901310 (Analytical chemistry, 2013).
# Where two headings read alike, the source gives them in different places.
# Key:
# Assay type in all cases: binding
# Ribonuclease A (RNaseA) [1] = biological target: T1, Ribonuclease A (RNaseA) (Bos taurus, UniProt P61823); test: reactive liquid sample DESI-MS of the native […] complex
# T1 sequence (P61823 27-150): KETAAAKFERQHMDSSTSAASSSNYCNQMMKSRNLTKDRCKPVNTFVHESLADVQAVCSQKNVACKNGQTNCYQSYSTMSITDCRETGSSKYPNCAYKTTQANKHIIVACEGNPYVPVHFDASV
# Ribonuclease A (RNaseA) [2] = biological target: T1, Ribonuclease A (RNaseA); test: as above; remark: listed apart in the source
# Ribonuclease A (RNaseA) [3] = biological target: T1, Ribonuclease A (RNaseA); test: reactive liquid sample DESI-MS of the native complex, ligand titration
# lysozyme = lysozyme (Gallus gallus, UniProt P00698); test: reactive liquid sample DESI-MS of the native […] complex
# Sequence of lysozyme (P00698 19-147): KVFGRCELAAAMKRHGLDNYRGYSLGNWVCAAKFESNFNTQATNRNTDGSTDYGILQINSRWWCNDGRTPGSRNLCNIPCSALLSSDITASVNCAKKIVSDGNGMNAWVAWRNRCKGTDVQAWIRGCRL
compound,measurement,setting,value
"Nc1ccn([C@@H]2O[C@H](CO)[C@@H](O)[C@H]2OP(=O)(O)O)c(=O)n1 [2′-CMP, cytidine 2′-monophosphate]",reactive liquid sample DESI-MS of the native 1:1 complex ([holo]/[apo] ratio at,Ribonuclease A (RNaseA) [1],0.13±0.017
"Nc1ccn([C@@H]2O[C@H](COP(=O)(O)OP(=O)(O)O)[C@@H](O)[C@H]2O)c(=O)n1 [CDP, cytidine 5′-diphosphate]",reactive liquid sample DESI-MS of the native 1:1 complex ([holo]/[apo] ratio at,Ribonuclease A (RNaseA) [2],0.37±0.04
"Nc1ccn([C@@H]2O[C@H](COP(=O)(O)OP(=O)(O)OP(=O)(O)O)[C@@H](O)[C@H]2O)c(=O)n1 [CTP, cytidine 5′-triphosphate]",Kd,Ribonuclease A (RNaseA) [3],1.91 µM
"CC(=O)N[C@H]1[C@H](O[C@H]2[C@H](O)[C@@H](NC(C)=O)C(O)O[C@@H]2CO)O[C@H](CO)[C@@H](O[C@@H]2O[C@H](CO)[C@@H](O)[C@H](O)[C@H]2NC(C)=O)[C@@H]1O (stereo partly shown) [NAG3, N,N’,N’’-triacetylchitotriose]",Kd,lysozyme,169 µM
